{"source": "patent US12491188B2", "about": "“Small molecule PARG inhibitors and methods of use thereof” (Board of Regents, The University of Texas System, priority 2019, dated 2025)", "key": {"MRC-5 cells": {"tested_on": "MRC-5 cells", "conditions": "SRB", "procedure": "Sulforhodamine B (SRB) Cytotoxicity Assay. […] Colorimetric or fluorescence analysis was performed in a FlexStation 3, using SoftMax Pro 7.0, Molecular Devices. Normalized graphs were generated with Prism 8 software, non-linear 4-parameter data fitting was performed for IC50 calculation."}, "[1]": {"molecular_target": "PARG proteins in PC3 cells (Homo sapiens (Human), UniProt Q86W56)", "sequence (Q86W56 whole entry)": "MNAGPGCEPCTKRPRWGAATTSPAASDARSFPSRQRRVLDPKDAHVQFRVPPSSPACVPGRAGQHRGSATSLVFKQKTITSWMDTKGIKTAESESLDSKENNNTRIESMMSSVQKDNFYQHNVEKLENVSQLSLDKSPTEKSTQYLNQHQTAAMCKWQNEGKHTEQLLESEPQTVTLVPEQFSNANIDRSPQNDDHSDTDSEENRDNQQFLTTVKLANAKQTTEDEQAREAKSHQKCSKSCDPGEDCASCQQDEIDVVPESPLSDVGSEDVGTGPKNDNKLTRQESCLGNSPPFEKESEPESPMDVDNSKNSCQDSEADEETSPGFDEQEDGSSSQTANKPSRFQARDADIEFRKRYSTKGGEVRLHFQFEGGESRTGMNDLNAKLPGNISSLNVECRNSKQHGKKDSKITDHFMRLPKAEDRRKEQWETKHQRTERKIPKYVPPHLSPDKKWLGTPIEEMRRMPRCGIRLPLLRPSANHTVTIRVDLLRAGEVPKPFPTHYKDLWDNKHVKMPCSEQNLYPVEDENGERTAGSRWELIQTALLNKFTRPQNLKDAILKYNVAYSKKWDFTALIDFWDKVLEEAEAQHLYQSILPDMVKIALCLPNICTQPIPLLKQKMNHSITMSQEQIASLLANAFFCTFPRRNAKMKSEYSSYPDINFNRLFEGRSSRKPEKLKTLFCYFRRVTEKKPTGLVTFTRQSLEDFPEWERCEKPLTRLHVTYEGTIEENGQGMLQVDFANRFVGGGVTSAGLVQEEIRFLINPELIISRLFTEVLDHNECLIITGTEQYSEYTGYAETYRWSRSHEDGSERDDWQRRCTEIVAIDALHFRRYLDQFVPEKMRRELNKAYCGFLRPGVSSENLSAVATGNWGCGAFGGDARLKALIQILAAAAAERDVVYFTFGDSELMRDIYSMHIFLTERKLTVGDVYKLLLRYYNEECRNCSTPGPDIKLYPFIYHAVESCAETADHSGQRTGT", "assay": "Cellular thermal shift assay (CETSA), PARG", "assay_type": "cell-based", "conditions": "10 μM, 2 h", "procedure": "PC3 cells treated with 10 μM JA2131 or DMSO were temperature shocked as described in the Examples and the resulting non-aggregated proteins were analyzed with Anti-PARG or Anti-PCNA antibody. Anti-Histone H3 was used as loading control.\nCellular thermal shift assay (CETSA). CETSA was performed as described in Molina et al., 2013. Briefly, PC3 cells were treated with 10 μM JA2131 or an equivalent volume of DMSO for 2 h, washed three times with PBS and extracted for total cell lysate. 10% glycerol was added to the samples before subjecting to heat. Gradient thermal cycler (C1000 Touch, Bio-Rad) was used to heat samples at 42, 57, 66, 72, 77 and 85° C. for 3 min and chilled on ice for 5 min. Then, samples were centrifuged at 14,000 rpm for 20 min at 4° C. Supernatants were carefully removed and analyzed by Western blotting analysis."}, "[2]": {"tested_on": "PC3, MDA-MB-231 and MCF-7 cell lines", "assay": "Clonogenic cell-survival assay", "assay_type": "cell-based, human", "conditions": "10 μM, 2 hours, 3 Gy IR, 2-3 weeks", "procedure": "FIGS. 14a-c show selective inhibition of PARG by xanthine derivative JA2131. (FIG. 14a) PARG knockdown MDA-MB-231 cells were treated with 5 μM JA2131 or PDD for two hours, lysed and total lysates were immunoblotted for anti-PAR (upper panel) followed by anti-PARG (upper middle), anti-PARP1 (lower middle) and anti-actin (bottom). (FIG. 14b) Clonogenic assay radiation dose determination for MDA-MB-231, MCF-7 and PC3 cells. 500 cells were exposed to indicated dose of radiation and colonies were allowed to form for each cell-lines. The surviving colonies from each group were counted and normalized against non-irradiated. The results of three independent experiments are shown here. Error bars=SEM. (FIG. 14c) Clonogenic survival assays of PC3, MDA MB231 and MCF-7 cells treated with PARGi. 500 cells were treated with either DMSO or 10 μM JA2131 for 2 hours, irradiated 3Gy ionizing radiation and grown for approximately 2-3 weeks, then colonies were fixed methanol and stained with crystal violet. Cells were analysed as above. The results of three independent experiments are shown here. Error bars=SEM.\nCell culture. […] Cells were fixed with methanol (100%), stained with crystal violet and analyzed using a GelCount instrument (Oxford Optronix Ltd). […]"}}, "data": [{"smiles": "O=C1C(Cl)=C(Cl)C(Cl)(Cl)C(Cl)=C1Cl", "note": "[JA2131]", "values": [{"measurement": "cytotoxic dose in MRC-5 cells relative to MDA-MB-231 cells", "setting": "MRC-5 cells", "value": "an order of magnitude higher"}, {"measurement": "thermal stabilization of PARG proteins in cells", "setting": "[1]", "value": 9, "unit": "°C"}, {"measurement": "colony formation", "setting": "[2]", "value": "inhibits colony formation in all three cell lines"}]}]}
